According to article PMC7802229, “Alkaloid and benzopyran compounds of Melicope latifolia fruit exhibit anti-hepatitis C virus activities” (BMC Complementary Medicine and Therapies, 2021):
In brackets after ≈: the same amount, converted by molar mass. Entries after “also recorded” stand apart in the source; their conditions may differ. Read-outs that look alike come from different tables or passages of the source.

Tests used:
[1] = test system: HCV life cycle (entry / post-entry); test: Time-of-addition experiment; assay type: cell-based; conditions: 25 μg/ml; for inhibition at 25 µg/mL: Hepatitis C virus, mean ± SD of triplicate; for Mode of action: time of addition
Protocol: A time addition experiment was performed to analyze the effect of the extract on the HCV life cycle. Entry inhibition was conducted by treated cells with extracts during viral inoculation to evaluate the inhibition in binding, entry and endocytosis. Post entry inhibition was conducted by treating cells with the extracts after viral inoculation. Supernatants were collected and viral titration and immunostaining was used to assess the mode of action.
(§1) Viral titration was performed by serially diluting the culture supernatant in DMEM medium and inoculating onto Huh7it-1 cells. After incubation for 41 h, the cells were fixed by 3.7% formaldehyde and permeabilized with 0.5% triton X-100 for 10 min. First antibody (HCV infected serum patient) was used in 1% bovine serum albumin (BSA) /2%BlockIce/ phosphate buffer saline (PBS) with a 300x dilution then incubated for 60 min. Second antibody (HRP-Goat anti human) was used in 1%BSA/2%BlockIce/PBS with a 400x dilution (50 μl/well) and then incubated for 60 min at room temperature. To visualize the infectious foci, 3,3′-diaminobenzidine (DAB) staining (DAB Thermo Scientific, USA) was used for 15 min until a brown color was observed. SPSS probit was used to calculate inhibition concentration 50% (IC50) values.

[2] = Cytotoxicity assay (MTT); assay type: cell-based; conditions: human, Huh7it-1 cells, mean ± SD of triplicate
Protocol: The cytotoxicity analysis was assessed using MTT assay 3-(4,5-Dimethylthiazol-2-Yl)-2,5-Diphenyltetrazolium Bromide. Solutions with extract concentrations of 1000, 400, 100, 50, 10, 1and […] were added onto Huh7it-1 cells in 96 well plates. After 46 h incubation, the medium was removed and 150 μl/well of 10% MTT was added then incubated for 4 h. The purple precipitates were then dissolved in dimethyl sulfoxide (DMSO). The purple solution was measured for UV absorbance using a microplate reader at 560 nm. SPSS probit was used to calculate the cytotoxic concentration 50% (CC50).

[3] = test system: HCV JFH1a; test: Antiviral activity assay (HCV infection of Huh7it-1 cells, titre by immunostaining); assay type: cell-based, hepatitis C virus (genotype 2a); conditions: for IC50: Hepatitis C virus, read-out: IC50 (anti-HCV activity); for Anti-HCV activity in words: highest concentration examined 50 μg/ml
Protocol: Hepatocyte cells of Huh7it-1 [18] were cultivated in DMEM-Dulbeco’s Modiffied Eagle Medium (GIBCO Invitrogen). The medium was supplemented with 10% Fetal Bovine Serum (FBS, GIBCO-Invitrogen), 0.15 mg/ml kanamycin solution (SIGMA) and 1x Non-Essential Amino Acids (NEAA, GIBCO-Invitrogen). The cell culture was incubated in 5% CO2 at 37 °C. HCV JFH1a was propagated in Huh7it-1 suspended in 4 ml JFH1 suspension and 4 ml DMEM and was incubated at 37 °C in 5% CO2 for 4 h. The suspension was divided into eight flasks and the supernatant was harvested on the third day. The supernatant was concentrated and examined for its viral titration and stored at − 80 °C [10].
The hepatocyte cells of Huh7it-1 were seeded on a 48 well plate with a cell density of 5.4 × 10^4 and incubated for 24 h. […] The supernatant was removed and washed with medium and placed back into solutions containing the same concentrations of extract. The cultures were then incubated for 48 h and the supernatant was taken to examine the titer infection of the sample by immunostaining.
as §1

[4] = test system: HCV NS3 protein; test: Immunoblotting of HCV NS3 protein in infected Huh7it cells; assay type: cell-based, hepatitis C virus; conditions: Huh7it-HCV infected cells MOI 0.5, various concentrations, 48 h
Protocol: Huh7it-1 cells were lysed with Ripa buffer and the amount of protein was checked using a bichincronic acid (BCA) assay kit. The proteins were separated in (sodium dodecyl sulfate polyacrylamide gel electrophoresis (SDS-PAGE) gel and transferred onto a PVDF membrane (Millipore, Bed-ford, MA, USA). Five percent skimmed milk was added to block non-specific binding and incubated for 60 min. First antibody, HCV NS3-specific mouse monoclonal antibody (clone H23; Abcam, Cambridge, MA, USA) and glyceraldehyde-3-phosphate dehydrogenase (GAPDH) antibody (MBL) was added and incubated for 1 h. The 0.05% PBST was used for membrane washing. Second antibody, HRP-conjugated goat anti mouse immunoglobulin (MBL) was incubated for 1 h and the respective protein was visualized using Clarity Western ECL substrate (Biorad). The chemical luminescence was detected using ImageQuant LAS 4000 (GE healthcare).
Culture of Huh7it-HCV infected cells (MOI = 0.5) was treated with various concentration of compounds. After 48 h of incubation, cells were subjected to western blot analysis using monoclonal antibody against HCV NS3 protein. GAPDH served as an internal control

[5] = test system: murine leukemia P-388 cells; design: method as in PMID 34498963; conditions: cited from earlier work
[6] = test system: brine shrimp larvae; design: method as in PMID 19483341; conditions: cited from earlier work
[7] = test system: N-formylmethionylleucylphenylalanine-induced superoxide production; design: method as in PMID 17822293; conditions: cited from earlier work
[8] = read-out: % Inhibition During inoculation
[9] = read-out: % Inhibition During+Post inoculation
[10] = read-out: % Inhibition Post inoculation
[11] = Huh7it-1 cells, HCV JFH1a MOI 0.1, 48 h, mean ± SD of triplicate

Row | SMILES | inhibition at 25 µg/mL [1, 8] [%] | inhibition at 25 µg/mL [1, 9] [%] | inhibition at 25 µg/mL [1, 10] [%] | Mode of action [1] | CC50 at 46 h [2] [µg/mL] | IC50 [3, 11] [µg/mL] | HCV NS3 protein level (western blot) [4] | IC50 ([3]; 48 h) [µg/mL] | Anti-HCV activity in words ([3]; Huh7it-1 cells) | IC50 against murine leukemia P-388 cells [5] [µg/mL] | LD50 towards brine shrimp larvae [6] [µg/mL] | HCV NS3 protein level (western blot) ([4]; listed as N-methylflidersine) | HCV NS3 protein level (western blot) ([4]; listed as N-methylflindersin) | IC50 [7] [µM]
1 | COc1c2c(c3c(c1C(C)=O)OC(C)(C)C=C3)OC(C)(C)C=C2 [O-methyloktadrenolon] | 9.1 ± 8.5 | 98.4 ± 0.4 | 98 ± 0.9 | inhibit HCV in the post-entry step; also recorded: Post-entry inhibition | 63 ± 2.3 (≈ 200 µM) | 10.9 ± 1.2 (≈ 34.7 µM) | decreased HCV NS3 protein level | – | – | – | – | – | – | –
2 | COc1c2ccoc2c(OC)c2oc(=O)ccc12 [Isopimpinellin] | – | – | – | – | > 1000 | – | – | > 50 | less active; also recorded: did not reveal anti-HCV activities | – | – | – | – | –
3 | COc1cc(O)c(C(C)=O)c2c1C=CC(C)(C)O2 [Alloevodionol] | – | – | – | – | > 1000 | 41.1 ± 3.1 (≈ 166 µM) | – | – | less active; also recorded: moderate inhibition | – | – | – | – | –
4 | COc1cc2c(c(OC)c1C(C)=O)C=CC(C)(C)O2 [Methylevodionol] | – | – | – | – | 310 ± 2.5 (≈ 1180 µM) | – | – | > 50 | less active; also recorded: did not reveal anti-HCV activities | 11.98 (≈ 45.7 µM) | – | – | – | –
5 | Cn1c(=O)c2c(c3ccccc31)OC(C)(C)C=C2 [N-methylflindersine] | 7.7 ± 1.8 | 83 ± 0.8 | 84.1 ± 2.9 | inhibit HCV in the post-entry step; also recorded: Post-entry inhibition | 97 ± 3.3 (≈ 402 µM) | 3.8 ± 2.7 (≈ 15.7 µM) | HCV NS3 protein reduction | – | – | 21.06 (≈ 87.3 µM) | 1.39 | decreased level of HCV NS3 protein expression | decreased HCV NS3 protein level | < 12
6 | COc1cc2oc(=O)ccc2c2c1C=CC(C)(C)O2 [Alloxanthoxyletin] | – | – | – | – | 93 ± 3 (≈ 360 µM) | 21.7 ± 2.2 (≈ 84.1 µM) | – | – | – | – | – | – | – | –
